Measured values taken from the supplement of paper PMC10307832.

How the values were obtained:
Test in all cases: relative viability (nuclei count vs DMSO), 5 days (fraction); higher = more cells survive
NCI-H441 = system: NCI-H441
Outline: (§1)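 After 5 days of treatment, lung cancer cells in 1536-well plates were fixed and stained in a single step (final 0.05% Triton X-100, 1% formaldehyde, 1 ug/ml Hoechst) and their nuclei counted on 4× images. Treatment had been applied by pin tool the day after seeding as one drug alone or as a fixed anchor-drug dose with five library-drug doses (not always all listed) in √10 steps. Relative viability is the nuclei count of treated wells divided by that of vehicle wells, and values are medians of duplicate plates.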

NCI-H23 = system: NCI-H23
Outline: as §1

NCI-H3122 = system: NCI-H3122
Outline: as §1

NCI-H2405 = system: NCI-H2405
Outline: as §1

PC-3 [JPC-3] = system: PC-3 [JPC-3]
Outline: as §1

NCI-H647 = system: NCI-H647
Outline: as §1

HCC-366 = system: HCC-366
Outline: as §1

LXF-289 = system: LXF-289
Outline: as §1

ABC-1 = system: ABC-1
Outline: as §1

UMC-11 = system: UMC-11
Outline: as §1

NCI-H596 = system: NCI-H596
Outline: as §1

PC-14 = system: PC-14
Outline: as §1

H3255 = system: H3255
Outline: as §1

A-427 = system: A-427
Outline: as §1

NCI-H1755 = system: NCI-H1755
Outline: as §1

LCLC-103H = system: LCLC-103H
Outline: as §1

NCI-H1437 = system: NCI-H1437
Outline: as §1

NCI-H2347 = system: NCI-H2347
Outline: as §1

NCI-H2009 = system: NCI-H2009
Outline: as §1

NCI-H2023 = system: NCI-H2023
Outline: as §1

NCI-H460 = system: NCI-H460
Outline: as §1

Compound `COCC1(CO)C(=O)C2CCN1CC2` (stereo not drawn) [PRIMA-1MET] + COc1cc2c(Oc3ccc(NC(=O)C4(C(=O)Nc5ccc(F)cc5)CC4)cc3F)ccnc2cc1OCCCN1CCOCC1 [Foretinib] (partner 0.25 µM) has a relative viability (NCI-H441; first compound 0.2 µM) of 0.954, a relative viability (NCI-H441; first compound 0.6325 µM) of 0.908 and a relative viability (NCI-H441; first compound 2 µM) of 0.988. For the same compound, the relative viability (NCI-H441; first compound 6.325 µM) was 1, the relative viability (NCI-H441; first compound 20 µM) was 0.496 and the relative viability (NCI-H23; first compound 0.2 µM) was 1.09. It also gave a relative viability (NCI-H23; first compound 0.6325 µM) of 1, a relative viability (NCI-H23; first compound 2 µM) of 0.861 and a relative viability (NCI-H23; first compound 6.325 µM) of 0.966. The relative viability (NCI-H23; first compound 20 µM) was 0.257, the relative viability (NCI-H3122; first compound 0.2 µM) was 0.739 and the relative viability (NCI-H3122; first compound 0.6325 µM) was 0.762. The relative viability (NCI-H3122; first compound 2 µM) was 0.963, the relative viability (NCI-H3122; first compound 6.325 µM) was 0.984 and the relative viability (NCI-H3122; first compound 20 µM) was 0.882. The relative viability (NCI-H2405; first compound 0.2 µM) was 1.03, the relative viability (NCI-H2405; first compound 0.6325 µM) was 1.03 and the relative viability (NCI-H2405; first compound 6.325 µM) was 1.03. For the same compound, the relative viability (NCI-H2405; first compound 20 µM) was 0.506, the relative viability (PC-3 [JPC-3]; first compound 0.2 µM) was 1.12 and the relative viability (PC-3 [JPC-3]; first compound 0.6325 µM) was 0.942. It also gave a relative viability (PC-3 [JPC-3]; first compound 2 µM) of 1.05, a relative viability (PC-3 [JPC-3]; first compound 6.325 µM) of 1.07 and a relative viability (PC-3 [JPC-3]; first compound 20 µM) of 0.935. The relative viability (NCI-H647; first compound 0.2 µM) was 1.29, the relative viability (NCI-H647; first compound 0.6325 µM) was 0.973 and the relative viability (NCI-H647; first compound 2 µM) was 1.08. For the same compound, the relative viability (NCI-H647; first compound 6.325 µM) was 1.22, the relative viability (NCI-H647; first compound 20 µM) was 1.16 and the relative viability (HCC-366; first compound 0.2 µM) was 0.84. For the same compound, the relative viability (HCC-366; first compound 0.6325 µM) was 0.946, the relative viability (HCC-366; first compound 2 µM) was 0.826 and the relative viability (HCC-366; first compound 6.325 µM) was 0.974. It also gave a relative viability (HCC-366; first compound 20 µM) of 0.207, a relative viability (LXF-289; first compound 0.2 µM) of 1.05 and a relative viability (LXF-289; first compound 0.6325 µM) of 0.95. It also gave a relative viability (LXF-289; first compound 2 µM) of 0.993, a relative viability (LXF-289; first compound 6.325 µM) of 1.02 and a relative viability (LXF-289; first compound 20 µM) of 0.949. It also gave a relative viability (ABC-1; first compound 0.2 µM) of 1.19, a relative viability (ABC-1; first compound 0.6325 µM) of 0.937 and a relative viability (ABC-1; first compound 2 µM) of 1.25. It also gave a relative viability (ABC-1; first compound 6.325 µM) of 1.03, a relative viability (ABC-1; first compound 20 µM) of 0.505 and a relative viability (UMC-11; first compound 0.2 µM) of 1.15. It also gave a relative viability (UMC-11; first compound 0.6325 µM) of 0.916, a relative viability (UMC-11; first compound 2 µM) of 0.963 and a relative viability (UMC-11; first compound 6.325 µM) of 0.979. For the same compound, the relative viability (UMC-11; first compound 20 µM) was 1.02, the relative viability (NCI-H596; first compound 0.2 µM) was 0.91 and the relative viability (NCI-H596; first compound 0.6325 µM) was 0.924. It also gave a relative viability (NCI-H596; first compound 2 µM) of 0.697, a relative viability (NCI-H596; first compound 6.325 µM) of 0.318 and a relative viability (NCI-H596; first compound 20 µM) of 0.0971. The relative viability (PC-14; first compound 0.2 µM) was 1.01, the relative viability (PC-14; first compound 0.6325 µM) was 0.87 and the relative viability (PC-14; first compound 2 µM) was 0.931. It also gave a relative viability (PC-14; first compound 6.325 µM) of 1.12, a relative viability (PC-14; first compound 20 µM) of 0.914 and a relative viability (H3255; first compound 0.2 µM) of 0.822. It also gave a relative viability (H3255; first compound 0.6325 µM) of 0.947, a relative viability (H3255; first compound 2 µM) of 0.807 and a relative viability (H3255; first compound 6.325 µM) of 1.05. It also gave a relative viability (H3255; first compound 20 µM) of 0.924, a relative viability (A-427; first compound 0.2 µM) of 0.902 and a relative viability (A-427; first compound 0.6325 µM) of 0.837. The relative viability (A-427; first compound 2 µM) was 0.895, the relative viability (A-427; first compound 6.325 µM) was 0.983 and the relative viability (A-427; first compound 20 µM) was 0.953. For the same compound, the relative viability (NCI-H1755; first compound 0.2 µM) was 1.02, the relative viability (NCI-H1755; first compound 0.6325 µM) was 0.932 and the relative viability (NCI-H1755; first compound 2 µM) was 0.809. The relative viability (NCI-H1755; first compound 6.325 µM) was 0.907, the relative viability (NCI-H1755; first compound 20 µM) was 0.867 and the relative viability (LCLC-103H; first compound 0.2 µM) was 0.915. For the same compound, the relative viability (LCLC-103H; first compound 0.6325 µM) was 0.718, the relative viability (LCLC-103H; first compound 2 µM) was 0.698 and the relative viability (LCLC-103H; first compound 6.325 µM) was 0.726. It also gave a relative viability (LCLC-103H; first compound 20 µM) of 0.189, a relative viability (NCI-H1437; first compound 0.2 µM) of 1.32 and a relative viability (NCI-H1437; first compound 0.6325 µM) of 1.21. It also gave a relative viability (NCI-H1437; first compound 2 µM) of 1.24, a relative viability (NCI-H1437; first compound 6.325 µM) of 1.21 and a relative viability (NCI-H1437; first compound 20 µM) of 1.17. It also gave a relative viability (NCI-H2347; first compound 0.2 µM) of 0.876, a relative viability (NCI-H2347; first compound 0.6325 µM) of 0.724 and a relative viability (NCI-H2347; first compound 6.325 µM) of 1.1. For the same compound, the relative viability (NCI-H2347; first compound 20 µM) was 0.814, the relative viability (NCI-H2009; first compound 0.2 µM) was 1.33 and the relative viability (NCI-H2009; first compound 0.6325 µM) was 1.17. For the same compound, the relative viability (NCI-H2009; first compound 2 µM) was 1.22, the relative viability (NCI-H2009; first compound 6.325 µM) was 1.22 and the relative viability (NCI-H2009; first compound 20 µM) was 0.52. It also gave a relative viability (NCI-H2023; first compound 0.2 µM) of 1.03, a relative viability (NCI-H2023; first compound 0.6325 µM) of 0.781 and a relative viability (NCI-H2023; first compound 2 µM) of 0.827. The relative viability (NCI-H2023; first compound 6.325 µM) was 0.915, the relative viability (NCI-H2023; first compound 20 µM) was 0.813 and the relative viability (NCI-H460; first compound 0.2 µM) was 1.08. For the same compound, the relative viability (NCI-H460; first compound 0.6325 µM) was 0.949, the relative viability (NCI-H460; first compound 2 µM) was 0.963 and the relative viability (NCI-H460; first compound 6.325 µM) was 0.944. For the same compound, the relative viability (NCI-H460; first compound 20 µM) was 0.359.
